Measured values as given in patent US6046228A, “Anti-viral pharmaceutical compositions containing saturated 1,2-dithiaheterocyclic compounds and uses thereof” (priority 1999, dated 2000).
pEC50: −log10 of the molar value.

Tests used:
Format in all cases: cell-based
[1] = system: HIV-1 ROJO(SI); assay: antiviral assay in PBL (p24), clinical isolate ROJO; settings: Human immunodeficiency virus 1, cell-free p24
Description: (§1) Initial anti-HIV screening was performed with CEM-SS cells and HIV-1RFusing the XTT cytoprotection assay as previously described (Weislow et al., J. National Cancer Inst. 81: 577-586, (1989)). HIV-1 isolates included common laboratory stains (RF, IIIB and MN), as well as a panel of HIV-1 clinical isolates (Cushman et al., J. Med. Chem. 37: 3040-3050, (1994)). The pyridone-resistant HIV-1A17 isolate (Nunberg et al., J. Virol., 65: 4887-4892 (1991)) was obtained from Emilio Emini at Merck Sharpe and Dohme Laboratories. Phytohemagglutinin-stimulated human peripheral blood lymphocytes (PBLs) and fresh monocyte-macrophage (Mono/MF) cultures were prepared and utilized in antiviral assays as previously described (Rice et al., Proc. Nat'l. Academy Science, USA 90: 9721-9724, (1993)); (Cushman et al., J. Med. Chem. 37: 3040-3050, (1994)). EC50 values for these cultures indicate the drug concentration that provided a 50% reduction in viral p24 production. […] The compounds can be synthesized according to the teachings of Singh et al., Sulfur Letters 8: 107-114, (1988). The 4,5-cis-dihydroxy(1,1-dioxy-1,2,-dithiohexane) compound (NSC 624151) has been abbreviated as 624151 for convenience. […]

[2] = system: HIV-1 6R(AZT^R); assay: XTT cytopathicity assay, AZT-resistant 6R; settings: MT-4, 6R(AZT^R)
Description: as §1

[3] = system: HIV-2ROD; assay: XTT cytopathicity assay, other retroviruses; settings: Human immunodeficiency virus 2, CEM-SS
Description: as §1

[4] = system: HIV-1IIIB; assay: combination antiviral XTT assay, CEM-SS cells, method of Prichard and Shipman; settings: for synergy volume: 95% confidence level
Description: Analysis of drug combinations was performed utilizing the XTT assay described above, with statistical evaluations performed according to the method of Prichard and Shipman (Antiviral Res. 14: 181-206, (1990)). Combination antiviral XTT assays were performed with CEM-SS cells utilizing HIV-1IIIB as previously described (Buckheit et al., Antimicrobial Agents and Chemotherapy 39: 2718-2727, (1995)). The standard anti-HIV assay was altered for combination analysis by increasing the multiplicity of infection 3-fold, allowing greater statistical consistency in these assays.
The synergy volumes for the combinatorial anti-HIV activities calculated at the 95% confidence level were 37, 80, 44, 55 and 16 μM^2, respectively, for each combination. Synergy volumes that range from […] represent additivity and volumes>50% represent synergistic responses. […] Thus, it is anticipated that the present dithiane dioxide compounds can be used in pharmaceutical compositions further including other antiviral agents.

[5] = system: fusion of cells expressing CD4 and gp120; assay: fusion of target cells expressing CD4 and gp120; settings: in words
[6] = system: HIV-1 from latently infected U1 cells; assay: virus production from TNF-α stimulated latently infected U1 cells; settings: FIG. 3(A); for formation of infectious virus from infected cells: in words
Description: U1 cells latently infected with two copies of HIV-1 proviral DNA per cell (Clous et al., J. Immunol. 142: 431-438, (1989)) were treated with 5 ng/ml tumor necrosis factor-α(TNF-α) for 24 hours to stimulate production of HIV-1 virions, after which various concentrations of 624151 were added to the cultures and incubated for an additional 48 hours. Cultures were analyzed for cell viability by the XTT reduction assay and cells were counted and scored for viability by trypan blue exclusion. Cells pellets were lysed (0.5% Triton X-100, 300 mM NaCl, 50 mM Tris-HCl, pH 7.6, 10 μg/ml each of Leupeptin and aprotinin (Boehringer Mannheim), 1.8 mg/ml iodoacetamide (Sigma Chemical Co., St. Louis, Mo.) and 1.0 mg/ml the protease inhibitor Pefabloc SC (Boehringer Mannheim at 4° C. for 15 min. and then quantitated for viral p24 content by ELISA. Cell-free supernatant samples were collected and analyzed for virus content by p24 ELISA, and infectivity in cultures of 174xCEM cells. Briefly, serial 1/2 dilutions of the supernatant were placed with 5×10^3 174xCEM cells and cultured for 7 days, cell supernatants were analyzed for viral p24 content, and the number of infectious units/ml calculated. In addition, cell free supernatants were centrifuged at 17,000×g for 1 hour at 4° C. to collect virion pellets. Proteins from both the virion and cellular lysates were separated by 4-20% SDS-PAGE (50 μg protein per lane), blotted onto PVDF membranes, reacted with anti-p7 and anti-p24 antisera, and then probed with HRP-conjugated goat anti-rabbit IgG and subsequently viewed with Western Blot Chemiluminescence Reagent (Dupont NEN, Wilmington, Del.).
Once proviral DNA has integrated into the cellular DNA, compounds that act on replicative events during the pre-integrative phase of infection are without effect. However, the zinc fingers as a part of the Pr55^gag and Pr160^gag-pol participate in the post-integrative phase production of progeny infectious virions, and the zinc finger-reactive 624151 should affect those functions. To test this possibility, we evaluated the effects of 624151 on cell viability and the production of viral proteins and infectious virions from U1 cells that latently harbor two copies of HIV-1 proviral DNA. Stimulation of U1 cells with TNF-α results in the production of high levels of p24 and infectious virions.

## O=S1(=O)C[C@H](O)[C@H](O)CS1 (relative stereo) [NSC 624151, cis-1,1-dioxo[1,2]dithiane-4,5-diol]
[1]
  pEC50: 4.60
[2]
  pEC50: 5.14
[3]
  pEC50: 4.81
[4]; AZT, ddC, 3TC, Costatolide or KNI-272, in words
  combination response with other antiviral agents: additive to slightly synergistic response in combination with other antiviral agents, but was not antagonistic with any agents tested
[4]; in combination with 3TC
  synergy volume: 44 μM^2
[4]; in combination with AZT
  synergy volume: 37 μM^2
[4]; in combination with Costatolide
  synergy volume: 55 μM^2
[4]; in combination with KNI-272 protease inhibitor
  synergy volume: 16 μM^2
[4]; in combination with ddC
  synergy volume: 80 μM^2
[5]
  inhibition of fusion: did not inhibit
[6]
  formation of infectious virus from infected cells: inhibition of the formation of infectious virus from HIV-1 infected cells
[6]; listed as 624151
  formation of infectious virus from infected cells: prevention of the formation of infectious virus from previously infected cells
[6]; Human immunodeficiency virus 1, 48 h, TNF-α stimulated U1 cells, read-out: concentration (as low as) at which infectious titer of released virions was effectively reduced
  minimal effective concentration: 3 µM
[6]; TNF-α stimulated U1 cells
  levels of intracellular or extracellular viral p24: did not dramatically reduce the levels of intracellular or extracellular viral p24
